Source: ChEMBL document CHEMBL1681761, “Synthesis, biological evaluation and molecular docking studies of stellatin derivatives as cyclooxygenase (COX-1, COX-2) inhibitors and anti-inflammatory agents” (Bioorg Med Chem Lett, 2011)

Key:
[1] = target: T1, Prostaglandin G/H synthase 1 (Homo sapiens, UniProt P23219); conditions: at 30 µM
Description: Inhibition of COX1 at 30 uM

[2] = test system: Mus musculus; experiment: Antiinflammatory activity against TPA-induced mouse edema model assessed as ear thickness at 0.5 mg/ear (Rbv = 0.270 +/- 0.008 mm); assay type: functional
[3] = target: T2, Prostaglandin G/H synthase 2 (Homo sapiens, UniProt P35354)
T2 sequence (P35354 whole entry): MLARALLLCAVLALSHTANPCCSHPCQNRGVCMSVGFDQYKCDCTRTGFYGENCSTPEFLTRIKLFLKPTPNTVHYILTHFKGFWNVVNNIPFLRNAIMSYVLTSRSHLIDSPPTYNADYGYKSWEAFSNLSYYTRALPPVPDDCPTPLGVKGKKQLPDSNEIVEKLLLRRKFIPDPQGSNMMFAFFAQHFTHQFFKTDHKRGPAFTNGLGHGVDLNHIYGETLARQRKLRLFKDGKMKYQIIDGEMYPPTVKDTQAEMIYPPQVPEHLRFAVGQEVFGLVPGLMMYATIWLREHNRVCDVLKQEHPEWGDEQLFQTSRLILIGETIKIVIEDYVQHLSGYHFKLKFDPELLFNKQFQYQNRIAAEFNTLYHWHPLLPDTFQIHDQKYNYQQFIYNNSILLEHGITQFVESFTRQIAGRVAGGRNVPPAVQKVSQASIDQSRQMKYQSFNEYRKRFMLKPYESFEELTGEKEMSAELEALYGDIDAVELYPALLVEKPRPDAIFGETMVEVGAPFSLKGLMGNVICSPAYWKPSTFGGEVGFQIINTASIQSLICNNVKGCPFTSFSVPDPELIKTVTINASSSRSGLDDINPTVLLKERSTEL

[4] = target: T3, Prostaglandin G/H synthase 2 (Homo sapiens) (UniProt P35354); conditions: at 30 µM
T3 sequence (whole entry): T2 sequence (P35354 whole entry)
Description: Inhibition of COX2 at 30 uM

[5] = target: T1, Prostaglandin G/H synthase 1; experiment: Inhibition of COX1
[6] = test system: Mus musculus; experiment: Antiinflammatory activity against TPA-induced mouse edema model assessed as reduction in ear edema at 0.5 mg/ear; assay type: functional

T1 sequence (P23219 whole entry): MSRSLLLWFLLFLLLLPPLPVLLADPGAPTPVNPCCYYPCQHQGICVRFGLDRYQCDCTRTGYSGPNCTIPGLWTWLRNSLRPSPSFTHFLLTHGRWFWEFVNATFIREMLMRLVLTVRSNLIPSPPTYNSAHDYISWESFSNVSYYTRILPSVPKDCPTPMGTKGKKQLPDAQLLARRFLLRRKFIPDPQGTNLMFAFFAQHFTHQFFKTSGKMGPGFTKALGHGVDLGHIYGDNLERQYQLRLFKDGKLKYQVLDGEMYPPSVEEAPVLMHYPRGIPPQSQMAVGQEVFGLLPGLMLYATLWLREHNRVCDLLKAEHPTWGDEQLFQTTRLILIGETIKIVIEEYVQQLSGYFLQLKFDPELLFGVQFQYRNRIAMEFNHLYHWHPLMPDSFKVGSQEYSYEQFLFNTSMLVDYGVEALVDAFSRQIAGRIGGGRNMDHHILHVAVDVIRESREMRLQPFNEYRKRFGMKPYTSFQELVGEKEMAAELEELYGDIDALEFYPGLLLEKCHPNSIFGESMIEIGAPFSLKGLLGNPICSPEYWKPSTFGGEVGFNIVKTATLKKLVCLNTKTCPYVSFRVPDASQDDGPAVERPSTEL

SMILES | inhibition [1] | IC50 [3] | inhibition [4] | IC50 [5] | Activity [2] | inhibition (INH) [6]
Cc1cc(=O)c2c(O)c(O)c(O)cc2o1 | 87.5% | 8.87 µM | 94.1% | 14.4 µM | 0.025 mm | 90.74%
COc1cc2oc(C)cc(=O)c2c(OC)c1OC | 70.3% | – | 47.4% | – | – | –
COc1cc2oc(C)cc(=O)c2c(O)c1OC [STELLATIN] | 71.5% | 19.7 µM | 80.2% | 22.3 µM | 0.082 mm | 69.44%
COc1ccc2c(c1)c(CC(=O)O)c(C)n2C(=O)c1ccc(Cl)cc1 [INDOMETHACIN] | – | – | – | – | 0.05 mm | 81.48%
CCCOc1c(OC)c(OC)cc2oc(C)cc(=O)c12 | 40.2% | – | 48.4% | – | – | –
COc1c(OC)c(O)c2c(=O)cc(C)oc2c1Br | 63.8% | 25.4 µM | 67% | 29.3 µM | 0.08 mm | 70.37%
COc1cc2oc(C)cc(=O)c2c(O)c1OCC=C(C)C | 80.7% | 15.5 µM | 83.2% | 18.7 µM | 0.06 mm | 77.77%
COc1cc2oc(C)cc(=O)c2c(OC(C)=O)c1OC | 59% | – | 46.2% | – | – | –
CCCCOc1c(OC)c(OC)cc2oc(C)cc(=O)c12 | 28.4% | – | 52.5% | – | – | –

The next lines start with results.

inhibition [1] | IC50 [3] | inhibition [4] | IC50 [5] | SMILES | Activity [2] | inhibition (INH) [6]
45.8% | – | 68.1% | – | COc1cc2oc(C)cc(=O)c2c(OC(=O)c2ccccc2)c1OC | – | –
63.4% | – | 48.1% | – | COc1cc2oc(C)cc(=O)c2c(OCc2ccccc2)c1OC | – | –
59% | – | – | – | COc1cc(/C=C/C(=O)CC(=O)/C=C/c2ccc(O)c(OC)c2)ccc1O | – | –
68.3% | 18 µM | 81.5% | 26 µM | C=CCOc1c(OC)cc2oc(C)cc(=O)c2c1O | 0.077 mm | 71.3%
74.1% | 13.5 µM | 89.5% | 21.6 µM | C=CCOc1cc2oc(C)cc(=O)c2c(O)c1OCC=C | 0.053 mm | 80.24%
56.2% | 21.2 µM | 73.9% | 38.3 µM | C=CCOc1c(OC)c(OC)cc2oc(C)cc(=O)c12 | 0.09 mm | 66.66%
78.1% | 15.4 µM | 85% | 19.8 µM | COc1cc2oc(C)cc(=O)c2c(O)c1O | 0.058 mm | 78.4%
85.6% | 20.1 µM | 78.5% | 17.8 µM | COc1cc(O)c2c(=O)cc(C)oc2c1 [EUGENIN] | 0.071 mm | 73.2%
66.8% | 43.4 µM | 50.3% | 27.2 µM | COc1c(OC)c(O)c2c(=O)cc(C)oc2c1Cl | 0.105 mm | 61.11%
54.9% | – | 49.8% | – | CCOc1c(OC)c(OC)cc2oc(C)cc(=O)c12 | – | –
82.3% | 10.3 µM | 91.7% | 17.2 µM | CC(C)=CCOc1cc2oc(C)cc(=O)c2c(O)c1OCC=C(C)C | 0.04 mm | 85.18%
70.1% | 17.6 µM | 82.5% | 22.9 µM | COc1cc2oc(C)cc(=O)c2c(OCC=C(C)C)c1OC | 0.061 mm | 77.16%
57.2% | – | 37.7% | – | COc1c(OC)c(O)c2c(=O)cc(C)oc2c1I | – | –
